Data reported in the NIST ThermoML archive (doi:10.1016/j.jct.2019.03.007).
± gives the expanded uncertainty stated by the source.

Assay: molar heat capacity at constant pressure
Conditions: 101.33 kPa, Crystal 1, DSC

O=[N+]([O-])[O-].O=[N+]([O-])[O-].[Ca+2] [calcium nitrate]
Conditions	molar heat capacity at constant pressure [J/K/mol]
588.78 K	184.89 ± 13
589 K	182.82 ± 13
589.78 K	184.99 ± 13
590 K	182.96 ± 13
590.78 K	185.09 ± 13
591 K	183.01 ± 13
591.78 K	185.18 ± 13
592 K	183.11 ± 13
592.78 K	185.28 ± 13
593 K	183.23 ± 13
593.78 K	185.38 ± 13
594 K	183.3 ± 13
594.78 K	185.47 ± 13
595 K	183.39 ± 13
595.78 K	185.57 ± 13
596 K	183.46 ± 13
596.78 K	185.66 ± 13
597 K	183.59 ± 13
597.78 K	185.76 ± 13
598 K	183.69 ± 13
598.78 K	185.85 ± 13
599 K	183.86 ± 13
599.78 K	185.95 ± 13
600 K	183.94 ± 13
600.78 K	186.04 ± 13
601 K	184.09 ± 13
601.78 K	186.13 ± 13
602 K	184.37 ± 13
602.78 K	186.22 ± 13
603 K	184.48 ± 13
603.78 K	186.31 ± 13
604 K	184.5 ± 13
604.78 K	186.4 ± 13
605 K	184.57 ± 13
605.78 K	186.49 ± 13
606 K	184.76 ± 13
606.78 K	186.58 ± 13
607 K	184.8 ± 13
607.78 K	186.67 ± 13
608 K	184.92 ± 13
608.78 K	186.76 ± 13
609 K	184.95 ± 13
609.78 K	186.85 ± 13
610 K	185 ± 13
610.78 K	186.93 ± 13
611 K	185.16 ± 13
611.78 K	187.02 ± 13
612 K	185.17 ± 13
612.78 K	187.1 ± 13
613 K	185.37 ± 13
613.78 K	187.19 ± 13
614 K	185.43 ± 13
614.78 K	187.28 ± 13
615 K	185.38 ± 13
615.78 K	187.37 ± 13
616 K	185.46 ± 13
616.78 K	187.46 ± 13
617 K	185.59 ± 13
617.78 K	187.56 ± 13
618 K	185.67 ± 13
618.78 K	187.65 ± 13
619 K	185.79 ± 13
619.78 K	187.75 ± 13
620 K	185.94 ± 13
620.78 K	187.84 ± 13
621 K	185.97 ± 13
621.78 K	187.94 ± 13
622 K	185.98 ± 13
622.78 K	188.03 ± 13
623 K	186.1 ± 13
623.78 K	188.13 ± 13
624 K	186.22 ± 13
624.78 K	188.23 ± 13
625 K	186.24 ± 13
625.78 K	188.32 ± 13
626 K	186.32 ± 13
626.78 K	188.42 ± 13
627 K	186.29 ± 13
627.78 K	188.51 ± 13
628 K	186.36 ± 13
628.78 K	188.61 ± 13
629 K	186.58 ± 13
629.78 K	188.7 ± 13
630 K	186.72 ± 13
630.78 K	188.8 ± 13
631 K	186.76 ± 13
631.78 K	188.9 ± 13
632 K	186.86 ± 13
632.78 K	189 ± 13
633 K	186.9 ± 13
633.78 K	189.1 ± 13
634 K	187.01 ± 13
634.78 K	189.2 ± 13
635 K	187.13 ± 13
635.78 K	189.3 ± 13
636 K	187.08 ± 13
636.78 K	189.41 ± 13
637 K	187.29 ± 13
637.78 K	189.51 ± 13
638 K	187.33 ± 13
638.78 K	189.61 ± 13
639 K	187.55 ± 13
639.78 K	189.71 ± 13
640 K	187.7 ± 13
640.78 K	189.82 ± 13
641 K	187.58 ± 13
641.78 K	189.92 ± 13
642 K	187.69 ± 13
642.78 K	190.01 ± 13
643 K	187.72 ± 13
643.78 K	190.11 ± 13
644 K	187.93 ± 13
644.78 K	190.2 ± 13
645 K	188.1 ± 13
645.78 K	190.29 ± 13
646 K	188.11 ± 13
646.78 K	190.39 ± 13
647 K	188.18 ± 13
647.78 K	190.49 ± 13
648 K	188.31 ± 13
648.78 K	190.58 ± 13
649 K	188.36 ± 13
649.78 K	190.69 ± 13
650 K	188.66 ± 13
650.78 K	190.8 ± 13
651 K	188.76 ± 13
651.78 K	190.9 ± 13
652 K	188.78 ± 13
652.78 K	191.02 ± 13
653 K	188.91 ± 13
653.78 K	191.13 ± 13
654 K	188.99 ± 13
654.78 K	191.25 ± 13
655 K	189.03 ± 13
655.78 K	191.36 ± 13
656 K	189.11 ± 13
656.78 K	191.46 ± 13
657 K	189.18 ± 13
657.78 K	191.57 ± 13
658 K	189.28 ± 13
658.78 K	191.67 ± 13
659 K	189.43 ± 13
659.78 K	191.77 ± 13
660 K	189.5 ± 13
660.78 K	191.87 ± 13
661 K	189.61 ± 13
661.78 K	191.96 ± 13
662 K	189.79 ± 13
662.78 K	192.06 ± 13
663 K	189.99 ± 13
663.78 K	192.15 ± 13
664 K	190.04 ± 13
664.78 K	192.23 ± 13
665 K	190.04 ± 13
665.78 K	192.32 ± 13
666 K	190.16 ± 13
666.78 K	192.4 ± 13
667 K	190.23 ± 13
667.78 K	192.49 ± 13
668 K	190.12 ± 13
668.78 K	192.56 ± 13
669 K	190.21 ± 13
669.78 K	192.64 ± 13
670 K	190.28 ± 13
670.78 K	192.72 ± 13
671 K	190.33 ± 13
671.78 K	192.79 ± 13
672 K	190.55 ± 13
672.78 K	192.86 ± 13
673 K	190.57 ± 13
673.78 K	192.94 ± 13
674 K	190.71 ± 13
674.78 K	193.03 ± 13
675 K	190.83 ± 13
675.78 K	193.12 ± 13
676 K	190.98 ± 13
676.78 K	193.22 ± 13
677 K	191.19 ± 13
677.78 K	193.31 ± 13
678 K	191.02 ± 13
678.78 K	193.41 ± 13
679 K	190.93 ± 13
679.78 K	193.5 ± 13
680 K	191.02 ± 13
680.78 K	193.6 ± 13
681 K	191.22 ± 13
681.78 K	193.69 ± 13
682 K	191.4 ± 13
682.78 K	193.78 ± 13
683 K	191.29 ± 13
683.78 K	193.87 ± 14
684 K	191.45 ± 13
684.78 K	193.96 ± 14
685 K	191.66 ± 13
685.78 K	194.03 ± 14
686 K	191.74 ± 13
686.78 K	194.08 ± 14
687 K	191.8 ± 13
687.78 K	194.13 ± 14
688 K	191.86 ± 13
688.78 K	194.18 ± 14
689 K	191.92 ± 13
689.78 K	194.23 ± 14
690 K	192.07 ± 13
690.78 K	194.31 ± 14
691 K	192.16 ± 13
691.78 K	194.39 ± 14
692 K	192.21 ± 13
692.78 K	194.47 ± 14
693 K	192.34 ± 13
693.78 K	194.54 ± 14
694 K	192.63 ± 13
694.78 K	194.6 ± 14
695 K	192.66 ± 13
695.78 K	194.65 ± 14
696 K	192.73 ± 13
696.78 K	194.69 ± 14
697 K	192.85 ± 13
697.78 K	194.72 ± 14
698 K	192.92 ± 13
698.78 K	194.76 ± 14
699 K	192.96 ± 13
699.78 K	194.82 ± 14
700 K	193.02 ± 13
700.78 K	194.88 ± 14
701 K	192.93 ± 13
701.78 K	194.97 ± 14
702 K	193.11 ± 13
702.78 K	195.08 ± 14
703 K	193.19 ± 13
703.78 K	195.21 ± 14
704 K	193.21 ± 13
704.78 K	195.34 ± 14
705 K	193.35 ± 13
705.78 K	195.47 ± 14
706 K	193.66 ± 14
706.78 K	195.61 ± 14
707 K	193.92 ± 14
707.78 K	195.75 ± 14
708 K	194.3 ± 14
708.78 K	195.89 ± 14
709 K	194.69 ± 14
709.78 K	196.04 ± 14
710 K	194.54 ± 14
710.78 K	196.23 ± 14
711 K	194.48 ± 14
711.78 K	196.47 ± 14
712 K	194.48 ± 14
712.78 K	196.76 ± 14
713 K	194.61 ± 14
713.78 K	197.06 ± 14
714.78 K	197.32 ± 14
715.78 K	197.53 ± 14
716.78 K	197.7 ± 14
717.78 K	197.7 ± 14
718.78 K	197.46 ± 14
